What was measured:
[1] = molecular target: T1, recombinant human TRPV1 (Homo sapiens, UniProt Q8NER1); assay: Calcium assay (Fluo-4) for TRPV1 antagonism in HEK293 cells in the presence of capsaicin; format: cell-based; settings: for TRPV1 antagonism (result in words), pre-incubation mode: isomer applied 10 min before addition of capsaicin; for TRPV1 antagonism (result in words): parallel application with capsaicin as agonist
T1 construct: expressed in transfected cells
Protocol: Three samples of cis- and/or trans-4-tert-butyl cyclohexanol were assessed: 1) 99% trans-isomer, 2) an isomeric mixture enriched in the cis-isomer (59% cis, 41% trans) and 3) 99% cis-isomer.
Calciumassay based on fluorescent dye Fluo-4-AM
Negative Control: KH-buffer (solvent)
Positive Control: lonomycin (generell calcium induction)
Positive Control Capsaicin (natural agonist of TRPV1)
One day prior to performing the assay, HEK293 cells stably overexpressing recombinant human TRPV1 were plated onto black-walled assay plates, at a density of 45,000 cells per well. Using the FLEX Station system the change of the cellular calcium concentration (calcium influx) induced by TRPV1 activation was monitored using the calcium sensitive fluorescent dye fluo-4 (494 nm/516 nm (exitation/emission)). The pharmacological TRPV1 antagonist Ruthenium Red (1 μM) was used as positive control [J. Biol. Chem. 2004, 279 (34): 35741-8]. The dye-loaded stable cells in plates were placed into the fluorescence microtiter plate reader to monitor fluorescence (excitation 488 nm, emission 520 nm) change after the addition of 50 μl assay buffer (118 mM NaCl; 4.7 mM KCl; 1.2 mM MgSO4; 1.2 mM KH2PO4; 4.2 mM NaHCO3; 1.3 mM CaCl2; 10 mM HEPES (N-(2-hydroxyethyl)-piperazine-N′-2-ethanesulfonic acid) (pH: 7.4)) supplemented with an antagonist. Calcium mobilization was quantified as the change of peak fluorescence (ΔF) over the baseline level (F). The analysis was done with the software of the microtiter plate reader (FLEX Station). Potential TRPV1 antagonists were tested at an effective range of 0.5-50 μM. The test compounds were either applied in parallel to 30 nM capsaicin or 10 min prior to the agonist. TRPV1 antagonists were tested for their antagonistic activity in the presence of 30 nM capsaicin, which is the EC80 effective capsaicin concentration leading to 80% of the maximum capsaicin dependent TRPV1 activation.
Antagonistic efficacy of the isomers of 4-tert-butyl cyclohexanol on transient receptor potential ion channel 1 in cell based fluorescent analysis.
The three samples were tested for TRPV1 antagonism at parallel application with capsaicin as agonist.
TRPV1 antagonist in vitro at incubation prior to capsaicin: cis-4-tert-butyl cyclohexanol and trans-4-tert-butyl cyclohexanol were applied to HEK293 cells 10 min before capsaicin treatment.
We therefore additionally tested the pure cis- and trans-isomers of 4-tert-butyl cyclohexanol respectively in a pre-incubation mode with application of the respective isomer 10 min before addition of capsaicin.

[2] = system: volunteers who were sensitive to capsaicin; assay: In vivo testing: capsaicin-induced stinging on the cheek, O/W-emulsion versus placebo; set-up: species or system human; settings: O/W-emulsion with 1 wt. % applied 60 s after 31.6 ppm capsaicin on cheek; evaluated 5 minutes later; 9 volunteers
Protocol: A study was performed with 9 volunteers who were sensitive to capsaicin. […] After 60 seconds all participants sensed a pronounced stinging effect. Then, an O/W-emulsion with 1 wt. % racemic trans-4-tert-butyl cyclohexanol (purity >99 wt. %) was applied on one cheek and the placebo O/W-emulsion on the other cheek (blinded samples).

[3] = system: volunteers who were sensitive to capsaicin; assay: Clinical study: stinging and burning at the nasolabial fold, O/W-emulsion with capsaicin with or without active; format: in vivo, human; settings: O/W-emulsion with 31.6 ppm capsaicin and 1 wt. % active on nasolabial fold; evaluated 3 minutes later; 20 volunteers
Protocol: A study was performed with 20 volunteers who were sensitive to capsaicin. […] On day 1 sample c2 was assessed versus control. On day 2 sample c1 was assessed versus control. The stinging and burning effects were evaluted 3 minutes later on the same scale as in Example 1.2.

T1 sequence (Q8NER1 whole entry): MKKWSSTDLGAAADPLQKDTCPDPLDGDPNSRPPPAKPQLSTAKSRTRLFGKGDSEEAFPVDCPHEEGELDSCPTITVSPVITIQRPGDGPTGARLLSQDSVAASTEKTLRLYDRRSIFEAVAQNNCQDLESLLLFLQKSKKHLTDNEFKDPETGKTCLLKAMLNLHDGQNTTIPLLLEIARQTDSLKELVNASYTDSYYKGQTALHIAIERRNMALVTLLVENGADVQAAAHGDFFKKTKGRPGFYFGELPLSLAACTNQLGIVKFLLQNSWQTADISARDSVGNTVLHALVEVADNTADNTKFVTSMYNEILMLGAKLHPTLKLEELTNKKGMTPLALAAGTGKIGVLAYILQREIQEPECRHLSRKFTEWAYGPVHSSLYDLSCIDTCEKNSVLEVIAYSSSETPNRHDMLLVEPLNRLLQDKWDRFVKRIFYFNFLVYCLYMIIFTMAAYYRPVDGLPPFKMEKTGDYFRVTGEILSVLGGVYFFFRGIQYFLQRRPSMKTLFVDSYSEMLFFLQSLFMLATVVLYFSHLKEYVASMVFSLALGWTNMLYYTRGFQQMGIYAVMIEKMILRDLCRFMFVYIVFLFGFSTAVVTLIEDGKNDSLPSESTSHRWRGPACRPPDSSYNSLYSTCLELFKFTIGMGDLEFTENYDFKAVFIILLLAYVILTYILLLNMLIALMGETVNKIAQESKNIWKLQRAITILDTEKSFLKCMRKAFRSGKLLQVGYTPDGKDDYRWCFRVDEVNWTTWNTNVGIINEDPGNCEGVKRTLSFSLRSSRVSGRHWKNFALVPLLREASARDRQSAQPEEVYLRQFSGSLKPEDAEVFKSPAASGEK

EC80 effective capsaicin concentration (80% of maximum capsaicin dependent TRPV1 activation) ([1]; agonist, HEK293 cells overexpressing human TRPV1) [µM]	IC50 ([1]; parallel application with 30 nM capsaicin as agonist, HEK293 cells overexpressing human TRPV1) [µM]	Structure (SMILES)	TRPV1 antagonism (result in words), pre-incubation mode [1]	TRPV1 antagonism (result in words) [1]	average rating of reduction of stinging effect on scale 0 (no effect) to 4 (completely suppressed) [2]	average rating of inhibition/reduction of stinging and burning on scale 0 to 4 [3]
0.03	–	COc1cc(CNC(=O)CCCC/C=C/C(C)C)ccc1O [capsaicin, reference compound]	–	–	–	–
–	–	CC(C)(C)[C@H]1CC[C@@H](O)CC1 [cis-4-tert-butyl cyclohexanol, reference compound]	not active	inactive	–	–
–	34.1	CC(C)(C)[C@H]1CC[C@H](O)CC1 [trans-4-tert-butyl cyclohexanol]	strong activity	significantly more active	3.10	2.95

Source: US9060943B2, “Compositions comprising trans-tert-butyl cyclohexanol as skin irritation-reducing agent” (SYMRISE AG, priority 2009, dated 2015)
